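The compound was tested at five concentrations on cells cultured in 96-well plates, with a 48-hour exposure period. The concentration for full growth arrest is given as TGI.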
Key:
Test in all cases: DTP human tumour cell line panel, 48 h
[1] = test system: A549 NSCLC
[2] = test system: BT-549 breast
[3] = test system: CAKI-1 renal
[4] = test system: HOP-92 NSCLC
[5] = test system: MDA-MB-435
[6] = test system: NCI-H460 lung
[7] = test system: NCI-H522 lung
[8] = test system: OVCAR-5 ovarian
[9] = test system: SK-MEL-2 melanoma
[10] = test system: SK-MEL-28 melanoma
[11] = test system: SK-OV-3 ovarian
[12] = test system: TK-10 renal
[13] = test system: UO-31 renal
[14] = test system: DU-145 prostate
[15] = test system: OVCAR-3 ovarian

Structure (SMILES): c1csc(-c2ccc(-c3ccsc3)s2)c1
- TGI [1]: > 100 µM
- TGI [2]: > 100 µM
- TGI [3]: > 100 µM
- TGI [4]: > 100 µM
- TGI [5]: > 100 µM
- TGI [6]: > 100 µM
- TGI [7]: > 100 µM
- TGI [8]: > 100 µM
- TGI [9]: > 100 µM
- TGI [10]: > 100 µM
- TGI [11]: > 100 µM
- TGI [12]: > 100 µM
- TGI [13]: > 100 µM

Structure (SMILES): CCOC(=O)C(Cc1ccc2c(c1)CCC2)Cc1ccc2c(c1)CCC2
- TGI [1]: > 100 µM
- TGI [3]: > 100 µM
- TGI [14]: > 100 µM
- TGI [4]: > 100 µM
- TGI [5]: > 100 µM
- TGI [6]: > 100 µM
- TGI [7]: > 100 µM
- TGI [15]: > 100 µM
- TGI [8]: > 100 µM
- TGI [9]: > 100 µM
- TGI [10]: > 100 µM
- TGI [11]: > 100 µM
- TGI [12]: > 100 µM
- TGI [13]: > 100 µM

Structure (SMILES): c1ccc2c(c1)ncn2CCn1ccnc1
- TGI [1]: > 100 µM
- TGI [2]: > 100 µM
- TGI [14]: > 100 µM
- TGI [5]: > 100 µM
- TGI [6]: > 100 µM
- TGI [7]: > 100 µM
- TGI [15]: > 100 µM
- TGI [8]: > 100 µM
- TGI [9]: > 100 µM
- TGI [10]: > 100 µM
- TGI [11]: > 100 µM
- TGI [12]: > 100 µM
- TGI [13]: > 100 µM

Structure (SMILES): Nc1nc(NNc2ccccc2F)cc(=O)[nH]1
- TGI [1]: > 100 µM
- TGI [2]: > 100 µM
- TGI [14]: > 100 µM
- TGI [5]: > 100 µM
- TGI [6]: > 100 µM
- TGI [15]: > 100 µM
- TGI [8]: > 100 µM
- TGI [10]: > 100 µM
- TGI [12]: > 100 µM
- TGI [13]: > 100 µM

Structure (SMILES): CCOC(=O)c1ncn2c1[nH]c(=O)c1ccccc12
- TGI [1]: > 100 µM
- TGI [6]: > 100 µM
- TGI [7]: > 100 µM
- TGI [15]: > 100 µM
- TGI [8]: > 100 µM
- TGI [9]: > 100 µM
- TGI [10]: > 100 µM
- TGI [12]: > 100 µM
- TGI [13]: > 100 µM

Structure (SMILES): CCn1c(SCC(=O)NNC(=S)Nc2ccc(Cl)cc2)nc2ccccc2c1=O
- TGI [1]: > 100 µM
- TGI [2]: > 100 µM
- TGI [3]: > 100 µM
- TGI [14]: > 100 µM
- TGI [5]: > 100 µM
- TGI [6]: > 100 µM
- TGI [7]: > 100 µM
- TGI [15]: > 100 µM
- TGI [8]: > 100 µM
- TGI [9]: > 100 µM
- TGI [10]: > 100 µM
- TGI [11]: > 100 µM
- TGI [12]: > 100 µM
- TGI [13]: > 100 µM

Structure (SMILES): CC12OC3(C(O)C1O)C(C(=O)O[C@H]3CO[Si](C)(C)C(C)(C)C)C2S(=O)(=O)c1ccccc1 (some centres undefined)
- TGI [1]: > 100 µM
- TGI [14]: > 100 µM
- TGI [4]: > 100 µM
- TGI [5]: > 100 µM
- TGI [6]: > 100 µM
- TGI [7]: 47.2 µM
- TGI [15]: > 100 µM
- TGI [8]: > 100 µM
- TGI [9]: > 100 µM
- TGI [10]: > 100 µM
- TGI [11]: > 100 µM
- TGI [12]: > 100 µM
- TGI [13]: > 100 µM

Structure (SMILES): CCOC(=O)C1=COC(C)(C)CC1=O
- TGI [1]: > 100 µM
- TGI [2]: > 100 µM
- TGI [3]: > 100 µM
- TGI [14]: > 100 µM
- TGI [5]: > 100 µM
- TGI [6]: > 100 µM
- TGI [7]: > 100 µM
- TGI [15]: > 100 µM
- TGI [8]: > 100 µM
- TGI [9]: > 100 µM
- TGI [10]: > 100 µM
- TGI [11]: > 100 µM
- TGI [12]: > 100 µM
- TGI [13]: > 100 µM

Structure (SMILES): Cc1ccccc1C(=O)NC(O)(C(F)(F)F)C(F)(F)F
- TGI [1]: > 100 µM
- TGI [3]: > 100 µM
- TGI [14]: > 100 µM
- TGI [4]: > 100 µM
- TGI [5]: > 100 µM
- TGI [6]: > 100 µM
- TGI [7]: > 100 µM
- TGI [15]: > 100 µM
- TGI [8]: > 100 µM
- TGI [9]: > 100 µM
- TGI [10]: > 100 µM
- TGI [11]: > 100 µM
- TGI [12]: > 100 µM
- TGI [13]: > 100 µM

Reference: PubChem BioAssay (NCI)
